Tests used:
LHPP [1] = settings: pH 8.2, in the presence of 1 mM MgCl2; LHPP isolated from bovine liver; cited from earlier work
LHPP [2] = target: T1, LHPP (Homo sapiens, UniProt Q9H008); format: biochemical
T1 sequence (Q9H008 1-270): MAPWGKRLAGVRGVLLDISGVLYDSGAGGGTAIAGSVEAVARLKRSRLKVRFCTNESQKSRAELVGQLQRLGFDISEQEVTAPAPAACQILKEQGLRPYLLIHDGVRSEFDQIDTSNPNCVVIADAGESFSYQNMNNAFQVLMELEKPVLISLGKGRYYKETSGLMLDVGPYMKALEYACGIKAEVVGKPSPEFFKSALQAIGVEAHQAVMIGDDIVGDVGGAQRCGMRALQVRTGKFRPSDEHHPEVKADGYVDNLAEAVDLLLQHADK

[3] = 60 °C, neutral pH; cited from earlier work

Row | SMILES | released phosphate (LHPP activity) (LHPP [1]) [µmol/min/mg] | enzymatically hydrolyzed substrate (LHPP [2]; 100 μM 1a, 0.25 μg LHPP, 200 μL, after 60 minutes, background subtracted) | hydrolysis rate by LHPP (LHPP [2]; 100 μM substrate, 200 μL 50 mM Tris–HCl, 1 mM MgCl2, pH 7.8, 0.25 μg LHPP (0.037 μM)) [µmol/min/mg] | half-life time [3]
1 | O=P(O)(O)NP(=O)(O)O [PNP, imidodiphosphate] | 0.44 |  |  | 
2 | O=P(O)(O)OP(=O)(O)O [PPi, pyrophosphate] | 0.11 |  |  | 
3 | N[C@@H](CCCCNP(=O)(O)O)C(=O)O [Substrate 1a, N6-phosphono-L-lysine] |  | roughly 50% | 0.88 | less than 1 h

Reference: publication PMC8163145 (Chemical Science, 2020)
